This note sets out measurements from PubChem BioAssay (NCI).

Among the test systems are HCC-2998 colon; HCT-116 colon; HOP-62 NSCLC; MDA-MB-231 breast; MOLT-4 leukemia; OVCAR-4 ovarian; OVCAR-8 ovarian; SK-MEL-2 melanoma; TK-10 renal; UACC-62 melanoma.
Experiment in all cases: NCI-60 cell line screen, 48 h

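Where inhibition never reached the appropriate level, the endpoint shown equals the highest concentration tested. Otherwise, values were interpolated linearly from a five-concentration, 48-hour dose response in 96-well plates. GI50: concentration for 50% inhibition of growth. TGI is the concentration that stops growth completely.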

As for `Fc1ccc(Nc2nc(Nc3ccc(-c4nc5ccccc5[nH]4)cc3)nc(N3CCCC3)n2)cc1`, the GI50 in the test on HCC-2998 colon is 2.39 µM; in the test with HCT-116 colon, 1.78 µM; in the test with HOP-62 NSCLC, 2.12 µM; in the test with MDA-MB-231 breast, 1.87 µM; in the test with MOLT-4 leukemia, 2.19 µM; in the test with OVCAR-4 ovarian it was 3.65 µM. In addition, the GI50 was 2.36 µM in the test with OVCAR-8 ovarian, 13 µM in the test with SK-MEL-2 melanoma, 17.1 µM with TK-10 renal and 1.77 µM in the test with UACC-62 melanoma. The TGI in the test on HCC-2998 colon amounted to 6.25 µM; in the test on HCT-116 colon, 3.52 µM; in the test with HOP-62 NSCLC it was 5.09 µM; in the test on MDA-MB-231 breast, 4.35 µM; in the test with MOLT-4 leukemia it was 5.74 µM; in the test with OVCAR-4 ovarian, 14.6 µM. For the same compound, the TGI worked out at 5.81 µM in the test with OVCAR-8 ovarian, 28 µM in the test on SK-MEL-2 melanoma, 31.3 µM with TK-10 renal and 3.61 µM with UACC-62 melanoma.
`CC1SC(c2cccs2)N(NC(=O)C(O)c2ccccc2)C1=O` (centres undefined): the GI50 in the test on HCC-2998 colon, in the test on HCT-116 colon, in the test on HOP-62 NSCLC, with MDA-MB-231 breast, in the test on MOLT-4 leukemia and in the test on OVCAR-4 ovarian was over 100 µM throughout. Moreover, the GI50 in the test on OVCAR-8 ovarian, in the test on SK-MEL-2 melanoma, in the test on TK-10 renal and with UACC-62 melanoma was over 100 µM in each case. The TGI with HCC-2998 colon, with HCT-116 colon, with HOP-62 NSCLC, in the test on MDA-MB-231 breast, in the test on MOLT-4 leukemia and in the test on OVCAR-4 ovarian was over 100 µM in each case. Also, the TGI in the test with OVCAR-8 ovarian, in the test with SK-MEL-2 melanoma, in the test with TK-10 renal and in the test on UACC-62 melanoma was over 100 µM each time.
Regarding `CN(C)CCn1cc(-c2ccc3c(Nc4ccc(CC(=O)Nc5cccc(F)c5)cc4)ncnc3c2)cn1`, the GI50 in the test on HCC-2998 colon was 1.77 µM; with HCT-116 colon it was 1.26 µM; in the test on HOP-62 NSCLC it was over 10 µM; in the test with MDA-MB-231 breast, 1.55 µM; in the test with MOLT-4 leukemia it was 2.51 µM; with OVCAR-4 ovarian it was 1.53 µM. The GI50 is 1.6 µM with OVCAR-8 ovarian, over 10 µM with SK-MEL-2 melanoma, 1.62 µM with TK-10 renal and 6.4 µM with UACC-62 melanoma. Besides, the TGI was 3.84 µM with HCC-2998 colon; 2.72 µM with HCT-116 colon; over 10 µM in the test with HOP-62 NSCLC; 3.35 µM in the test on MDA-MB-231 breast; over 10 µM in the test on MOLT-4 leukemia; 3.09 µM in the test with OVCAR-4 ovarian. The TGI is 6.39 µM in the test with OVCAR-8 ovarian, over 10 µM in the test with SK-MEL-2 melanoma, 4.21 µM in the test with TK-10 renal and over 10 µM in the test with UACC-62 melanoma.
As to `CCOc1ccc2c(c1)/C(=C\C=C\C1CC(C)C3CC(OCC)CCC3N1CC)CC(C)N2CC` (centres undefined), the GI50 was 1.05 µM with HCC-2998 colon; 0.789 µM in the test with HCT-116 colon; 0.755 µM in the test on HOP-62 NSCLC; 1.22 µM with MDA-MB-231 breast; 1.47 µM with MOLT-4 leukemia; 0.459 µM with OVCAR-4 ovarian. For the same compound, the GI50 in the test on OVCAR-8 ovarian is 0.61 µM; with SK-MEL-2 melanoma it was 1.66 µM; with TK-10 renal, 1.5 µM; with UACC-62 melanoma, 1.26 µM. Also, the TGI in the test on HCC-2998 colon worked out at 2.42 µM; in the test on HCT-116 colon it was 2.17 µM; with HOP-62 NSCLC, 2.25 µM; in the test on MDA-MB-231 breast, 2.92 µM; in the test with MOLT-4 leukemia, 4.14 µM; with OVCAR-4 ovarian it was 2 µM. For the same compound, the TGI in the test with OVCAR-8 ovarian was found to be 2.19 µM; with SK-MEL-2 melanoma it was 3.35 µM; with TK-10 renal, 2.93 µM; with UACC-62 melanoma, 2.77 µM.
On to `CO/N=C1/c2cc(OC)ccc2-c2c(NOC)nc3ccccc3c21`, for which the GI50 with HCC-2998 colon is 35.6 µM; in the test with HCT-116 colon, 22.6 µM; in the test with HOP-62 NSCLC, 24.6 µM; in the test on MDA-MB-231 breast, 12.6 µM; in the test on MOLT-4 leukemia it was 47 µM; with OVCAR-4 ovarian it was 27.3 µM. The GI50 with OVCAR-8 ovarian was 10.3 µM; in the test on SK-MEL-2 melanoma it was 24.7 µM; in the test with TK-10 renal, 16 µM; in the test with UACC-62 melanoma, 27.5 µM. Further, the TGI with HCC-2998 colon is over 100 µM; in the test on HCT-116 colon it was 49.2 µM; with HOP-62 NSCLC, 39.4 µM; in the test on MDA-MB-231 breast, 40.1 µM; in the test on MOLT-4 leukemia, over 100 µM; in the test on OVCAR-4 ovarian, over 100 µM. For the same compound, the TGI in the test on OVCAR-8 ovarian was 37 µM; in the test with SK-MEL-2 melanoma, 88.5 µM; in the test on TK-10 renal it was 39.7 µM; in the test with UACC-62 melanoma, over 100 µM.
As for `O=C1c2cc3c(cc2-c2c1c1ccc([N+](=O)[O-])cc1c(=O)n2CCCCl)OCO3`, the GI50 in the test on HCC-2998 colon is 0.489 µM; in the test on HCT-116 colon, 6.38 µM; in the test on HOP-62 NSCLC it was 0.383 µM; in the test with MOLT-4 leukemia, 0.0528 µM; with OVCAR-4 ovarian, 7.34 µM; in the test on OVCAR-8 ovarian, over 100 µM. Moreover, the GI50 with SK-MEL-2 melanoma is over 100 µM; in the test with TK-10 renal, over 54.3 µM; with UACC-62 melanoma, 0.176 µM. Further, the TGI in the test with HCC-2998 colon is 5.43 µM; with HCT-116 colon, over 100 µM; with HOP-62 NSCLC, over 100 µM; in the test with MDA-MB-231 breast, over 24.9 µM; in the test on MOLT-4 leukemia, over 100 µM; with OVCAR-4 ovarian, over 100 µM. Also, the TGI is over 100 µM in the test with OVCAR-8 ovarian, over 100 µM in the test with SK-MEL-2 melanoma, over 100 µM with TK-10 renal and 2.5 µM in the test with UACC-62 melanoma.
Take `CC(C)(C)c1ccc(-c2nnc(SCc3ccc(Cl)cc3)n2-c2cccc(C(F)(F)F)c2)cc1`: the TGI is over 62.4 µM in the test on HCC-2998 colon; over 100 µM in the test on HCT-116 colon; over 100 µM in the test on HOP-62 NSCLC; over 100 µM in the test with MDA-MB-231 breast; over 67.1 µM with MOLT-4 leukemia; over 100 µM with OVCAR-4 ovarian. Further, the TGI was over 100 µM in the test with OVCAR-8 ovarian, over 69.5 µM in the test on SK-MEL-2 melanoma, over 100 µM in the test on TK-10 renal and over 100 µM in the test with UACC-62 melanoma.
As for `CCCCOC(=O)N[C@H]1CCc2cc(OC)c(OC)c(OC)c2-c2ccc(SC)c(=O)cc21`, the TGI in the test on HCC-2998 colon is 2.29 µM; with HCT-116 colon it was 1.18 µM; in the test on HOP-62 NSCLC it was 40.3 µM; in the test with MDA-MB-231 breast, 2.8 µM; in the test on MOLT-4 leukemia it was 57.8 µM; in the test on OVCAR-4 ovarian, over 96.5 µM. In addition, the TGI in the test on OVCAR-8 ovarian was determined as 12.7 µM; with SK-MEL-2 melanoma it was 2.02 µM; in the test with TK-10 renal it was 52.4 µM; in the test with UACC-62 melanoma, 24.8 µM.
